Data reported in the supplement of paper PMC10307832.

Assays:
Test in all cases: relative viability (nuclei count vs DMSO), 5 days (fraction); higher = more cells survive
[1] = compound: O=C(O)c1ccc2c(c1)nc(Nc1cccc(Cl)c1)c1ccncc12 [Silmitasertib] + CC(C)C[C@H](NC(=O)[C@H](Cc1ccccc1)NC(=O)c1cnccn1)B(O)O [Bortezomib] (partner 0.002 µM)
Summary of the method: (§1)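 Lung cancer cell lines were pin-tool dosed in 1536-well plates on the day after seeding, with either a lone drug or a fixed anchor-drug dose plus five library-drug doses (not always all listed) in √10 steps. Nuclei were counted on 4× images after 5 days. Relative viability is the ratio of treated-well to vehicle-well nuclei counts, with each value a median of duplicate plates.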

Silmitasertib + OSI-027 = compound: O=C(O)c1ccc2c(c1)nc(Nc1cccc(Cl)c1)c1ccncc12 [Silmitasertib] + COc1cccc2cc(-c3nc([C@H]4CC[C@H](C(=O)O)CC4)n4ncnc(N)c34)[nH]c12 [OSI-027] (partner 0.5 µM)
Summary of the method: as §1

[2] = compound: O=C(O)c1ccc2c(c1)nc(Nc1cccc(Cl)c1)c1ccncc12 [Silmitasertib] + C[C@@H](Oc1cc(-c2cnn(C3CCNCC3)c2)cnc1N)c1c(Cl)ccc(F)c1Cl [Crizotinib] (partner 1 µM)
Summary of the method: as §1

[3] = compound: O=C(O)c1ccc2c(c1)nc(Nc1cccc(Cl)c1)c1ccncc12 [Silmitasertib] + Nc1nc2[nH]cc(CCc3ccc(C(=O)N[C@@H](CCC(=O)O)C(=O)O)cc3)c2c(=O)[nH]1 [Pemetrexed] (partner 0.2 µM)
Summary of the method: as §1

[4] = compound: O=C(O)c1ccc2c(c1)nc(Nc1cccc(Cl)c1)c1ccncc12 [Silmitasertib] + Nc1ncn([C@H]2C[C@H](O)[C@@H](CO)O2)c(=O)n1 [Decitabine] (partner 2 µM)
Summary of the method: as §1

Cell Line	relative viability ([1]; first compound 0.04 µM)	relative viability ([1]; first compound 0.4 µM)	relative viability ([1]; first compound 1.265 µM)	relative viability ([1]; first compound 4 µM)	relative viability (Silmitasertib + OSI-027; first compound 0.04 µM)	relative viability (Silmitasertib + OSI-027; first compound 0.4 µM)	relative viability (Silmitasertib + OSI-027; first compound 1.265 µM)	relative viability (Silmitasertib + OSI-027; first compound 4 µM)	relative viability ([2]; first compound 0.04 µM)	relative viability ([2]; first compound 0.4 µM)	relative viability ([2]; first compound 1.265 µM)	relative viability ([2]; first compound 4 µM)	relative viability ([3]; first compound 0.04 µM)	relative viability ([3]; first compound 0.4 µM)	relative viability ([3]; first compound 1.265 µM)	relative viability ([3]; first compound 4 µM)	relative viability ([4]; first compound 0.04 µM)	relative viability ([4]; first compound 0.4 µM)	relative viability ([4]; first compound 1.265 µM)	relative viability ([4]; first compound 4 µM)
LC-2-ad	1.13	0.858	1	0.605	0.982	0.709	0.721	0.483	0.421	0.423	0.37	0.417	0.288	0.264	0.26	0.227	0.836	0.794	0.689	0.665
LCLC-97TM1	1.13		0.521	0.208	0.545		0.339	0.198	0.593		0.339	0.141	0.187		0.186	0.144	0.236		0.209	0.251
LCLC-103H	1.15	0.956	0.817	0.739	0.519	0.4	0.438	0.384	1.03	1.06	1	0.713	0.49	0.394	0.416	0.378	0.791	0.655	0.616	0.556
LOU-NH91	0.509	0.46	0.394	0.452	0.709	0.665	0.629	0.543	0.755	0.585	0.676	0.683	0.357	0.383	0.368	0.457	0.876	0.801	0.754	0.782
LU99A	1.22	1.18	0.899	0.438	0.276	0.293	0.314	0.255	0.583	0.725	0.558	0.591	0.187	0.168	0.148	0.168	0.824	0.837	0.808	0.605
LXF-289	1.02		1.05	0.979	0.78		0.805	0.532	0.794		0.842	0.825	0.968		0.8	0.824	0.41		0.377	0.405
NCI-H23	1.01		0.782	0.706	0.706		0.423	0.206	0.51		0.384	0.362	0.779	0.389	0.57	0.303	0.353	0.256	0.255	0.245
NCI-H322M	1.25	0.881	0.947	0.804	0.619	0.467	0.383	0.372	0.878	0.662	0.511	0.281	0.666	0.536	0.595	0.482	0.727	0.686	0.674	0.649
NCI-H441	0.514		0.496	0.17	0.629		0.337	0.26	0.814		0.787	0.6	0.289		0.245	0.281	0.207		0.216	0.231
NCI-H460	1.22	0.967	1.09	1.15	0.822	0.688	0.64	0.672	0.91	0.866	0.755	0.865	0.0675	0.0541	0.0651	0.0575	0.551	0.511	0.478	0.363
NCI-H520	0.622	0.515	0.389	0.422	0.197	0.239	0.252	0.252	0.821	0.728	0.792	0.612	0.716	0.716	0.694	0.566	0.586	0.578	0.528	0.502
NCI-H596	1	0.818	1.02	0.751	0.749	0.471	0.68	0.472	1.01	1.01	0.909	0.964	0.523	0.502	0.54	0.472	0.909	1.05	1.05	0.785
NCI-H647	1.12	0.866	0.705	0.343	0.775	0.578	0.503	0.44	1.26	1.1	0.932	0.48	0.183	0.16	0.148	0.134	0.411	0.387	0.344	0.288
NCI-H650	0.996	0.515	0.614	0.345	0.699	0.424	0.515	0.366	0.79	0.502	0.463	0.378	0.981	0.433	0.912	0.659	0.309	0.315	0.322	0.341
NCI-H661	0.852		0.734	1.1	0.864	0.593	0.635	0.577	1.02	0.929		1.1	0.93	0.966	0.865	0.666	0.636	0.617	0.548	0.441
NCI-H838	1.15		0.759	0.66	0.456		0.425	0.274	0.941		0.861	0.511	0.231	0.234	0.227	0.213	0.459	0.427	0.402	0.341
NCI-H1355	1.27		1.16	0.929	0.438		0.371	0.345	1.07		1.1	1.07	1.04		1.01	0.852	0.343		0.371	0.285

Cell Line	relative viability ([1]; first compound 0.04 µM)	relative viability ([1]; first compound 0.4 µM)	relative viability ([1]; first compound 1.265 µM)	relative viability ([1]; first compound 4 µM)	relative viability (Silmitasertib + OSI-027; first compound 0.04 µM)	relative viability (Silmitasertib + OSI-027; first compound 0.4 µM)	relative viability (Silmitasertib + OSI-027; first compound 1.265 µM)	relative viability (Silmitasertib + OSI-027; first compound 4 µM)	relative viability ([2]; first compound 0.04 µM)	relative viability ([2]; first compound 0.4 µM)	relative viability ([2]; first compound 1.265 µM)	relative viability ([2]; first compound 4 µM)	relative viability ([3]; first compound 0.04 µM)	relative viability ([3]; first compound 0.4 µM)	relative viability ([3]; first compound 1.265 µM)	relative viability ([3]; first compound 4 µM)	relative viability ([4]; first compound 0.04 µM)	relative viability ([4]; first compound 0.4 µM)	relative viability ([4]; first compound 1.265 µM)	relative viability ([4]; first compound 4 µM)
NCI-H1437	0.594		0.384	0.474	0.946	0.623	0.598	0.457	0.916		0.865	0.778	0.337	0.3	0.254	0.228	0.578	0.533	0.445	0.411
NCI-H1650	0.375	0.192	0.232	0.195	0.99	0.511	0.496	0.203	1.04	1	1	0.68	0.339	0.454	0.387	0.319	0.525	0.419	0.315	0.254
NCI-H1651	0.957	0.894	1.02	0.934	0.822	0.667	0.642	0.704	0.88	0.727	0.834	0.924	0.625	0.38	0.247	0.665	0.65	0.542	0.197	0.692
NCI-H1666	1.01	0.702	0.5	0.468	0.812	0.732	0.652	0.615	0.918	0.787	0.691	0.508	0.89	0.795	0.72	0.63	0.804	0.67	0.498	0.656
NCI-H1734	0.911		0.827	0.841	0.626	0.522	0.593	0.497	0.628		0.606	0.655	0.443	0.336	0.423	0.386	0.613	0.52	0.536	0.412
NCI-H1755	0.91	0.905	0.95	0.945	0.726	0.764	0.728	0.721	0.89	0.837	0.929	0.924	0.422	0.489	0.383	0.386	0.715	0.735	0.735	0.762
NCI-H1792	0.943	0.68	0.53	0.864	0.815	0.675	0.782	0.699	0.948	0.764	0.735	0.882	0.772	0.78	0.78	0.331	0.6	0.492	0.529	0.515
NCI-H1915	1.01		1.02	0.424	0.624		0.676	0.351	0.888		0.931	0.718	0.503		0.429	0.302	0.266		0.259	0.253
NCI-H1975	0.349	0.283	0.423	0.331	0.67		0.645	0.66	0.954	0.795	0.929	0.816	0.294		0.287	0.219	0.455		0.277	0.401
NCI-H1993	1.33	0.857	0.995	0.745	0.544	0.56	0.614	0.658	0.956	0.899	0.803	0.644	0.616	0.524	0.598	0.505	0.544	0.494	0.552	0.514
NCI-H2009	1.14	0.545	0.944	0.463	0.784	0.506	0.424	0.262	1.09	1.04	1.1	0.97	1.09	0.98	1.13	0.908	0.382	0.39	0.392	0.371
NCI-H2023	1.13	0.557	0.946	0.282	0.503	0.345	0.343	0.251	0.663	0.585	0.513	0.542	0.278	0.187	0.266	0.21	0.239	0.225	0.208	0.195
NCI-H2085	1.19	0.614	0.873	0.889	0.914		0.704	0.466	0.871	0.777	0.806	0.77	1.02	0.647	0.833	0.867	0.594	0.553	0.553	0.459
NCI-H2087	0.737	0.656	0.657	0.421	0.507		0.513	0.18	0.88	0.793	0.853	0.428	0.604	0.64	0.665	0.542	0.414	0.286	0.181	0.199
NCI-H2126	1.08	0.98	1.08	1.05	0.725		0.596	0.602	1.02	0.996	0.99	1.12	0.734	0.623	0.672	0.491	0.585	0.631	0.497	0.508
NCI-H2347	1.27	0.593	0.881	0.652	0.414		0.398	0.336	0.792	0.683	0.725	0.567	0.44		0.363	0.42	0.637	0.558	0.606	0.579
NCI-H2405	0.936	0.792	0.874	0.904	0.646	0.518	0.498	0.567	0.822	0.692	0.745	0.803	1.12	1	0.73	0.86	0.779	0.735	0.716	0.794
